Results published in publication PMC2824672, “Identification of inhibitors of Plasmodium falciparum phosphoethanolamine methyltransferase using an enzyme-coupled transmethylation assay” (2010).

Assays:
[1] = target: T1, phosphoethanolamine methyltransferase, PfPMT (Plasmodium falciparum, UniProt Q8IDQ9); assay: 1H-15N HSQC NMR titration; also inhibition of purified enzyme in coupled assay; format: binding
T1 construct: gene PMT; recombinant 6His-tagged PfPMT (266 residues), 15N-labeled for NMR

[2] = target: T2, phosphoethanolamine methyltransferase, PfPMT (Plasmodium falciparum, UniProt Q8IDQ9); assay: 1H-15N HSQC NMR titration (weak; no enzyme inhibition at […]); format: binding; design: gene PMT; recombinant 6His-tagged PfPMT, 15N-labeled for NMR
T2 sequence (Q8IDQ9 1-266): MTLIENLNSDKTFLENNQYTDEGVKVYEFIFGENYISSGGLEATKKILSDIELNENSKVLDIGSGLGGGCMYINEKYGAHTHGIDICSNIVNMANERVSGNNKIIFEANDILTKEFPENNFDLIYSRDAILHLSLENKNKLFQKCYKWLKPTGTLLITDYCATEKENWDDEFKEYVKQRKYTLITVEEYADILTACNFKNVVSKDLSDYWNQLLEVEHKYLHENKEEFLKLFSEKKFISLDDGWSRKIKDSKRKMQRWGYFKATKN

[3] = target: T2, phosphoethanolamine methyltransferase, PfPMT; assay: enzyme-coupled spectrophotometric methyltransferase assay; format: biochemical; design: gene PMT; recombinant purified PfPMT (pET-15b)
[4] = target: T2, phosphoethanolamine methyltransferase, PfPMT; assay: enzyme-coupled assay, substrate turnover by purified enzyme; format: biochemical; design: gene PMT; recombinant purified PfPMT (pET-15b)
[5] = target: T2, phosphoethanolamine methyltransferase, PfPMT; assay: enzyme-coupled assay, co-substrate turnover by purified enzyme; format: biochemical; design: gene PMT; recombinant purified PfPMT (pET-15b)

CCN(CC)Cc1cc(Nc2ccnc3cc(Cl)ccc23)ccc1O [AQ, amodiaquine]
inhibition at 5 µM [1]: 60%

CCN(CC)CCCC(C)Nc1ccnc2cc(Cl)ccc12 (stereo not shown) [CQ, chloroquine]
1H-15N HSQC NMR titration (weak; no enzyme inhibition at 200 μM) [2]: indicating site-specific binding, the affinity of CQ for PfPMT is much lower than that of AQ

CCCCCCCCCCCC[N+](C)(C)C [DDTA, Dodecyltrimethylammonium bromide]
inhibition at 500 µM [3]: 25%

CCCCCCCCCCCCCCCC[N+](C)(C)C [HDTA, Hexadecyltrimethylammonium bromide]
inhibition at 100 µM [3]: ~50%

CCCCCCCCCCCCCCCCOP(=O)([O-])OCC[N+](C)(C)C [HePC, Miltefosine]
inhibition at 100 µM [3]: ~60%

NCCOP(=O)(O)O [P-EA, phosphoethanolamine]
enzyme-coupled assay, substrate turnover by purified enzyme [4]: PfPMT activity increased proportionally to the concentration of these substrates

C[S+](CC[C@H](N)C(=O)[O-])C[C@H]1O[C@@H](n2cnc3c(N)ncnc32)[C@H](O)[C@@H]1O (stereo partly shown) [SAM, S-adenosylmethionine]
enzyme-coupled assay, co-substrate turnover by purified enzyme [5]: The effect of increasing concentrations of the substrate P-EA and co-substrate SAM on PfPMT activity was also measured.
